{"source": "patent US20090111781A1", "about": "“Use of Cymipristone Type Compounds in Aids Treatment” (SHANGHAI THREE-ALLIANCE BIOTECHNOLOGIES CO., LTD., priority 2005, published 2009)", "key": {"[1]": {"assay": "MTT toxicity on PBMC infected by HIV-1 AZT-sensitive strain 018a", "conditions": "human, PBMC, 018a", "protocol": "Collect cells with curette, infect cells with 10^−2 AZT sensitive (018a) or AZT resistant (018c) virus strain liquid, and adsorb for 2 hours, Wash off unabsorbed virus with 1640 culture medium without serum, prepare cells infected by virus to 1×10^6/ml with culture solution, and inoculate on 96-pore culture plate, 100 μl/pore. […] Set cell control group and virus infected cell control group. Incubate under 37° C. and 5% CO2. On the fourth day (96 hours), pipette out the supernatant liquid and store under −20° C. for determination of HIV-1 P24 antigen titer and calculation of drug inhibitory action. Add MTT staining to cells for determination of cytotoxicity. Determination of cytotoxicity by MTT staining: Add 10 μl of 5 mg/ml MTT stain into each pore, continue to incubate under 37° C., 5% CO2 and saturated humidity for 4 hours. […] Determine the HIV-1 P24 antigen titer according to the operation procedure provided by the HIV-1 P24 antigen reagent kit. Compare the drug-added group with virus control group. […] Calculation method of 50% toxic concentration (CC50), 50% effective concentration (EC50) and selection index (SI): […]"}, "[2]": {"target": "T1, human glucocorticoid receptor (Homo sapiens, UniProt P04150)", "T1 construct": "expressed in transfected cells; host or cells: CV-1 cells", "T1 sequence (P04150 1-777)": "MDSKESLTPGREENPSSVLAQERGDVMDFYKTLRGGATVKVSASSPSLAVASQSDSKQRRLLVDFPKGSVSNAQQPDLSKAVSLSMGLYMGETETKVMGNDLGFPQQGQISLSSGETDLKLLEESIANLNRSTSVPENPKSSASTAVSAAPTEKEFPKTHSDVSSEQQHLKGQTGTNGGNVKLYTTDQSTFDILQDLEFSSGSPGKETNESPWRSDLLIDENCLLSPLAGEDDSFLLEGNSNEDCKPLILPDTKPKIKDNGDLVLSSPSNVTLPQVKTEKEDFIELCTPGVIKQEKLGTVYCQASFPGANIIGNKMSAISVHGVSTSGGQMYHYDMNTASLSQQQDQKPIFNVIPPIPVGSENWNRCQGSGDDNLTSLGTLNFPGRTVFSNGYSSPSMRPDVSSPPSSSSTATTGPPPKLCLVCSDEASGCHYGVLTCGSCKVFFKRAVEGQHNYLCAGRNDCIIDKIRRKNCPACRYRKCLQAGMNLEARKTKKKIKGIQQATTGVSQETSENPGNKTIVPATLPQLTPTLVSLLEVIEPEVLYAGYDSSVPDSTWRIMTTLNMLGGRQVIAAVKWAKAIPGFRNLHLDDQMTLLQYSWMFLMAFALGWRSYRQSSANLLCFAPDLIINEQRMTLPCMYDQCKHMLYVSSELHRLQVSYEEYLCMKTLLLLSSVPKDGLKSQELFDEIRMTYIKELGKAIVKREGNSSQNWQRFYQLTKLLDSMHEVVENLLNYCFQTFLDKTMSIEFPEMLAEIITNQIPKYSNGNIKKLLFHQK", "assay": "Antagonism on dexamethasone in CV-1 cells cotransfected with GR and luciferase reporter", "format": "cell-based", "protocol": "Inoculate (6×10^5) of CV-1 cells into cell culture dish of 60 mm diameter using phenol red-free low-sugar DMEM containing 10% FBS as culture medium and incubate overnight under 37° C. and 5% CO2. Suction according to 1:5 ratio pipet 2 μg of plasmid carried GR genes and luciferase reporting genes, cotransfect CV-1 cells with FuGene 6 transfection reagent (from Roche), and incubate for 8 hours under above conditions, Inoculate the transfected cells into 96-pore micro culture plate, 8000 cells/100 μl/pore, and incubate cells to adhibit on the wall of dish. […] Discard the culture liquid, wash the cells twice with PBS, and pipet off all residual PBS. fragment the cells by CCLR Assay Kit (from Progema) for 15 min. Add 20 μl of fragmentation solution into 96 pore cell culture plate with white edge and white bottom, add CCLR substrate (from Progema), 100 μl/pore, and immediately detect the chemical luminescence count value caused by activated luciferase on Wallac 1420 Multilabel Counter."}, "HIV-1 IIIB P24 antigen": {"system": "HIV-1 IIIB P24 antigen", "assay": "microbe, parasite or virus in culture", "format": "cell-based", "conditions": "for Selection index (SI): MT-4", "protocol": "(1) Inoculate MT4 cells into 96-pore cell culture plate, 1×10^5 cells/ml, infect with HIV-1-IIIB virus strain of about 100TCID50, and add cymipristone solution at the same time, its concentration is below 100 μg/ml, triply diluted to 8 concentrations. Set virus TCID50 determination group and cell control group. Each concentration is duplicated in two pore. Incubate under 37° C., 5% CO2 and saturated humidity in an incubator.\nDaily observe the cytopathy in above culture plate by microscope, record the degree of cytopathy with routine method, and calculate the 50% toxic concentration (TC50) and maximum nontoxic concentration (TC0) of drug according to Reed & Muench method. (3) Determination on HIV-1 P24 Antigen with Supernatant Liquid Pipetted from Cell Culture Plate Added Drug After 4 days (96 hours), pipette out the supernatant liquid from cell culture added drug and freeze HIV-1 P24 antigen used for determination.\nTake the supernatant liquid on the fourth day, combine the liquid from two pore, and dilute by 1:100, Determine the HIV-1 P24 antigen titer (OD value) by ELISA method according to the instruction of HIV-1 P24 antigen reagent kit. […] At the same time, determine the 50% infection concentration of HIV-1/IIIB virus strain in MT-4 cells and virus infection quantity (TCID50).\n(1) Calculation of TC50, IC50 and SI of Drug in Cell Culture According to Reed & Muench Method"}, "[3]": {"conditions": "Human immunodeficiency virus 1, IIIB, MT4, read-out: Inhibition rate on HIV-1 P24 antigen"}}, "note": "“And” between values parts separate entries of the source, which are not always exact repeats. Equal values may be shown once."}
{"smiles": "CC#C[C@]1(O)CC[C@H]2[C@@H]3CCC4=CC(=O)CCC4=C3[C@@H](c3ccc(N(C)C4CCCCC4)cc3)C[C@@]21C", "note": "[Cymipristone, 11β-[4-(N-methyl-N-cyclohexylamino)phenyl]-17α-(1-propynyl)-17β-hydroxyl-4,9-estradiene-3-one]", "values": [{"measurement": "CC50 at 96 h", "setting": "[1]; 50% toxic concentration CC50, Average", "result": 130, "unit": "µg/mL"}, {"measurement": "CC50 at 96 h", "setting": "[1]; 50% toxic concentration CC50, Experiment 1", "result": 104, "unit": "µg/mL"}, {"measurement": "CC50 at 96 h", "setting": "[1]; 50% toxic concentration CC50, Experiment 2", "result": 156, "unit": "µg/mL"}, {"measurement": "IC50", "setting": "[2]", "result": "0.26 ± 0.02", "unit": "nM"}, {"measurement": "Antagonistic activity on human glucocorticoid receptor function caused by dexamethasone (in words)", "setting": "[2]; gene cotransfected live cells", "result": "significant antagonistic activity"}, {"measurement": "IC50", "setting": "HIV-1 IIIB P24 antigen; Human immunodeficiency virus 1, IIIB, MT4, read-out: IC50 on HIV-1 IIIB P24 antigen", "result": "1.3 µg/mL and 2.62 µM"}, {"measurement": "inhibition at 0.05 µg/mL", "setting": "HIV-1 IIIB P24 antigen; [3]", "result": 14, "unit": "%"}, {"measurement": "inhibition at 0.14 µg/mL", "setting": "HIV-1 IIIB P24 antigen; [3]", "result": 17, "unit": "%"}, {"measurement": "inhibition at 0.41 µg/mL", "setting": "HIV-1 IIIB P24 antigen; [3]", "result": 13, "unit": "%"}, {"measurement": "inhibition at 1.23 µg/mL", "setting": "HIV-1 IIIB P24 antigen; [3]", "result": 29, "unit": "%"}, {"measurement": "inhibition at 3.7 µg/mL", "setting": "HIV-1 IIIB P24 antigen; [3]", "result": 93, "unit": "%"}, {"measurement": "Selection index (SI)", "setting": "HIV-1 IIIB P24 antigen; SI=TC50/IC50, CPE cytotoxicity", "result": 5.93}, {"measurement": "Selection index (SI)", "setting": "HIV-1 IIIB P24 antigen; SI=TC50/IC50, MTT cytotoxicity", "result": 23.28}, {"measurement": "Effect on HIV-1 P24 antigen formation in MT-4 cell culture (in words)", "setting": "HIV-1 IIIB P24 antigen; conclusion", "result": "significant inhibitory effect"}]}
